# According to patent EP4458412A1, “NOVEL PHOSPHOANTIGEN PRODRUG COMPOUND AND USE THEREOF” (University College Cardiff Consultants, Ltd., priority 2023, dated 2024):
# How the values were obtained:
# CD8^+ T cells = experiment: Activation of CD8+ T cells in PBMC overnight cultures (CD69/CD25, flow cytometry); format: cell-based, human; conditions: for concentration without CD8+ T cell activation relative to Vγ9/Vδ2 T-cell activation EC50: 1 µM versus EC50; for activation of CD8+ T cells: up to a concentration of 1 µM, overnight PBMC culture
# Procedure: (§1) To assess the activation of Vy9/V62 T cells, PBMCs were seeded into U-bottom tissue culture-treated 96-well plates at a cell density of 500,000 cells per well. […] The cells were incubated at 37°C/5%CO2 overnight, and stained by flow cytometry for the following markers: viability (Zombie Aqua 1:400), CD3 (BV421 1:100), CD8 (BV650 1:200), Vγ9 (PEcy5 1:400), V62 (APC 1:200), CD69 (PE 1:25), CD25 (FITC 1:100). The samples were acquired via LSRFortessa X20 (BD Biosciences), and the data obtained were analysed using FlowJo v10 and GraphPad Prism v9 software.
# Like peripheral blood γδ T-cells, peripheral blood CD8^+ T-cells lack appreciable levels of surface CD69 or CD25 under steady state conditions, but upon T-cell receptor (TCR) stimulation upregulate both T-cell activation markers within 72 hours. PAg responsive CD8 T-cells were then distinguished by TCR CD8 expression and assessed for the upregulation CD69 and CD25.
# [1] = tested on: T24 urinary bladder carcinoma cells; experiment: Europium-based (DELFIA) cytotoxicity assay: lysis of drug-sensitized T24 cells by expanded Vγ9/Vδ2 T cells; format: cell-based, Human; conditions: 10 nM ProPAgen, 2 h pretreatment, effector:target 80:1, compared with 10 µM Zoledronate
# Procedure: Human T24 urinary bladder carcinoma cell lines were cultured in PBS for 2 h at 37°C/5% CO2 without ProPAgens (i.e. untreated), containing 10 µM zoledronate (i.e. the clinically used small molecule drug) or the indicated HMBP phosphonodiamidate ProPAgens of the present invention, i.e. ProPAgen 9d at a concentration of 10nM, and ProPAgen 14d at a concentration of 10nM. A positive control for cell death (target cells incubated with 10% v/v DELFIA lysis buffer) and media-only treated control (no drug) were also included. The cells were then washed 3 times at 600 x g for 5 min in PBS to remove any excess drug and incubated in PBS with BATDA labelling agent (used at 1µl per ml) for 20 min at 37°C as before.
# In the meantime, ex vivo expanded Vy9/V62 T cells, i.e. Vy9/V62 T cells that have been expanded with 5µM Zoledronate and 100U/ml IL2 over a period of 14 days, were thawed, counted and resuspended to a cell concentration of 4 x 10^6 cells/ml. […]
# The level of killing of T24 cells was then measured via time-resolved fluorescence using a PHERAstar microplate reader (BMG Labtech). Specific lysis (% killing of T24 cells) was calculated as follows: [(experimental release - spontaneous release)/(maximal release - spontaneous release)] x 100. The data were processed and analyzed using Microsoft Excel and GraphPad Prism v9 software. […]
# human Vγ9/Vδ2^+ T cells = experiment: Activation of human Vγ9/Vδ2+ T cells in PBMCs (CD69/CD25 upregulation, flow cytometry); format: cell-based; conditions: for activation of Vγ9/Vδ2 T cells at the highest concentration studied: 100 µM compared with 10 µM; for activation of Vγ9/Vδ2 T cells (rank in words): across the two series 9a-d and 14a-d, in vitro; for EC50: PBMCs incubated overnight, CD69+ CD25+ Vγ9/Vδ2 T cells, 10pM to 100µM
# Procedure: General: Healthy donor peripheral blood mononuclear cells (PBMCs) were harvested as described in Morita et al. 2007. In particular, blood was obtained in the presence of a mixture of heparin and ethylene diamino tetra acetic acid (EDTA) as anticoagulants (2 U/ml heparin, 1.5 mM EDTA) from consented healthy donors (approved by the NRES Committee West Midlands-Solihull Ethical Board; REC reference 14/WM/1254). Blood was then layered on a density gradient medium, lymphoprep (Stem Cell Technologies) and Peripheral blood mononuclear cells (PBMCs) were purified by gradient centrifugation. The cells were washed 2 times with Phosphate Buffered Saline (PBS), then resuspended in RPMI-1640 media supplemented with 2 mM L-glutamine, 25 mM HEPES, 1% sodium pyruvate, 50 µg/ml penicillin/streptomycin (Invitrogen) and 10% foetal calf serum.
# as §1
# Peripheral blood γδ T-cells lack appreciable levels of surface CD69 or CD25 under steady state conditions, but T-cell receptor (TCR) stimulation upregulates both T-cell activation markers within 72 hours. PAg responsive Vy9/V62 T-cells were then distinguished by TCR Yγ9 and V62 expression and assessed for the upregulation CD69 and CD25. […]
# [2] = Human serum stability monitored by 31P NMR; format: in vitro ADME; conditions: 37 °C, 7.5 h
# Procedure: This experiment was carried out as previously reported in Mehellou et al. 2020 and Slusarczyk, M.; Ferrari, V.; Serpi, M.; Gönczy, B.; Balzarini, J.; McGuigan, C; Symmetrical Diamidates as a Class of Phosphate Prodrugs to Deliver the 5'-Monophosphate Forms of Anticancer Nucleoside Analogues; ChemMedChem 2018, 13, 2305-2316 (hereinafter "McGuigan et al. 2018"), as well as Slusarczyk, M.; Lopez, M. H.; Balzarini, J.; Mason, M.; Jiang, W. G.; Blagden, S.; Thompson, E.; Ghazaly, E.; McGuigan, C. Application of ProTide technology to gemcitabine: a successful approach to overcome the key cancer resistance mechanisms leads to a new agent (NUC-1031) in clinical development. J. Med. Chem. 2014, 57, 1531-1542 (hereinafter "McGuigan et al. 2014").
# Briefly, 5.0 mg of the phosphonodiamidate ProPAgen 9b was dissolved in a mixture of 0.05 mL of DMSO and 0.15 mL D2O. After recording the first ^31P NMR data, 0.3 mL human serum (Merck Life Sciences) was added and monitored by NMR. The experiment was run on NMR ^31P mode and scanned every half an hour for 7.5 h. The incubation temperature was 37°C. Recorded data were processed and analysed with Bruker Topspin 2.1 software.
# ProPAgen 9b was incubated with human serum at 37 °C for 7.5 h and monitored by ^31P NMR spectroscopy. […]
# carboxypeptidase Y = biological target: T1, carboxypeptidase Y (Saccharomyces cerevisiae, UniProt P00729); experiment: Carboxypeptidase Y assay (in vitro metabolism, 31P NMR); format: in vitro ADME; conditions: recombinant carboxypeptidase Y, 37 °C
# T1 sequence (P00729 112-532): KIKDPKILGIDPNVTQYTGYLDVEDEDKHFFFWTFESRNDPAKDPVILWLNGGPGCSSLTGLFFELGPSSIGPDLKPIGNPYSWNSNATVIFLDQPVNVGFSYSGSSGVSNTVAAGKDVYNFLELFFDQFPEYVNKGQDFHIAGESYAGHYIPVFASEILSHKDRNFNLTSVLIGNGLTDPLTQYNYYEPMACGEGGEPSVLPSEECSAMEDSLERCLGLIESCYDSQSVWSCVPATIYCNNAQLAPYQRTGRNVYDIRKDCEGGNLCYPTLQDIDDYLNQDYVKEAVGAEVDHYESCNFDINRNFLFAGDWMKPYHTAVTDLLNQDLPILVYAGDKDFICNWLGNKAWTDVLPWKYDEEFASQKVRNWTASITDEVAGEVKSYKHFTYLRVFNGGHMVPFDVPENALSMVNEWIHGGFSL
# Procedure: The in vitro metabolism of the phosphonodiamidate ProPAgens according to the present invention was investigated in a carboxypeptidase Y assay.
# The carboxypeptidase Y assay was carried out as previously reported by Mehellou et al. 2020, McGuigan et al. 2018 and McGuigan et al. 2014. 5.0 mg of the phosphonodiamidate ProPAgen 9b was dissolved in 0.2 mL of acetone, and 0.4 mL of Trizma buffer (pH 7.4) was added followed by 0.5 mg carboxypeptidase Y in 0.2 ml Trizma buffer (pH 7.4). The phosphonodiamidate ProPAgen 9b was incubated with recombinant carboxypeptidase Y at 37 °C and monitored the reaction by ^31P-NMR for 12 h. Recorded data were processed and analysed with Bruker Topspin 2.1 software.
# Vγ9/Vδ2 T cells = conditions: previously reported potencies (Hsiao 2014; Reichenberg 2003); cited from earlier work
smiles,measurement,setting,value
"C/C(=C\CCP(=O)(N[C@@H](C)C(=O)OCc1ccccc1)N[C@@H](C)C(=O)OCc1ccccc1)CO [ProPAgen 14d, Dibenzyl 2,2'-((((E)-5-hydroxy-4-methylpent-3-en-1-yl)phosphoryl)bis(azane-diyl))-(2S, 2'S)-dipropionate]",concentration without CD8+ T cell activation relative to Vγ9/Vδ2 T-cell activation EC50,CD8^+ T cells,"approx. 100,000 times"
same,activation of CD8+ T cells,CD8^+ T cells,did not exhibit activation
same,sensitizing effects (specific lysis of T24 cells by Vγ9/Vδ2 T-cells),[1],much more potent
same,activation of Vγ9/Vδ2 T cells at the highest concentration studied,human Vγ9/Vδ2^+ T cells,less than that achieved with 10 µM
same,activation of Vγ9/Vδ2 T cells (rank in words),human Vγ9/Vδ2^+ T cells,most potent activation
"COC(=O)[C@H](C)NP(=O)(N[C@@H](C)C(=O)OC)C(F)(F)C/C=C(\C)CO [ProPAgen 9a, Dimethyl 2,2'-((((E)-1,1-difluoro-5-hydroxy-4-methylpent-3-en-1-yl)phosphor-yl)bis(azanediyl))(2S,2'S)-dipropionate]",EC50,human Vγ9/Vδ2^+ T cells,191 nM
"C/C(=C\CCP(=O)(N[C@@H](C)C(=O)OC(C)(C)C)N[C@@H](C)C(=O)OC(C)(C)C)CO [ProPAgen 14c, Di-tert-butyl 2,2'-((((E)-5-hydroxy-4-methylpent-3-en-1-yl)phosphoryl)bis(az-ane-diyl))-(2S,2'S)-dipropionate]",EC50,human Vγ9/Vδ2^+ T cells,6100 nM
"C/C(=C\CC(F)(F)P(=O)(N[C@@H](C)C(=O)OC(C)C)N[C@@H](C)C(=O)OC(C)C)CO [ProPAgen 9b, Diisopropyl 2,2'-((((E)-1,1-difluoro-5-hydroxy-4-methylpent-3-en-1-yl)phosphor-yl)bis-(azanediyl))(2S,2'S)-dipropionate]",half-life,[2],> 7.5 h
same,EC50,"human Vγ9/Vδ2^+ T cells; Homo sapiens, T-cell",167 nM
same,time to appearance of three new 31P NMR peaks (metabolite 17),carboxypeptidase Y; Trizma buffer pH 7.4,≤ 0.5 h
same,31P NMR peaks of parent prodrug after incubation,carboxypeptidase Y; within 6.5 h,those of 9b were the minor
"C/C(=C\CCP(=O)(N[C@@H](C)C(=O)OC(C)C)N[C@@H](C)C(=O)OC(C)C)CO [ProPAgen 14b, Diisopropyl 2,2'-((((E)-5-hydroxy-4-methylpent-3-en-1-yl)phosphoryl)bis(az-anediyl))-(2S,2'S)-dipropionate]",EC50,human Vγ9/Vδ2^+ T cells,87 nM
"C/C(=C\CC(F)(F)P(=O)(N[C@@H](C)C(=O)OCc1ccccc1)N[C@@H](C)C(=O)OCc1ccccc1)CO [ProPAgen 9d, Dibenzyl 2,2'-((((E)-1,1-difluoro-5-hydroxy-4-methylpent-3-en-1-yl)phosphoryl)-bis(azanediyl))(2S,2'S)-dipropionate]",concentration without CD8+ T cell activation relative to Vγ9/Vδ2 T-cell activation EC50,CD8^+ T cells,"approx. 100,000 times"
same,activation of CD8+ T cells,CD8^+ T cells,did not exhibit activation
same,sensitizing effects (specific lysis of T24 cells by Vγ9/Vδ2 T-cells),[1],much more potent
same,activation of Vγ9/Vδ2 T cells at the highest concentration studied,human Vγ9/Vδ2^+ T cells,less than that achieved with 10 µM
same,activation of Vγ9/Vδ2 T cells (rank in words),human Vγ9/Vδ2^+ T cells,most potent activation
"O=P(O)(O)C(O)(Cn1ccnc1)P(=O)(O)O [zoledronate, reference compound]",EC50,"human Vγ9/Vδ2^+ T cells; Homo sapiens, T-cell",18500 nM
same,EC50,Vγ9/Vδ2 T cells,3 to 500 nM
"C/C(=C\COP(=O)(O)OP(=O)(O)O)CO [HMBPP, (E)-4-hydroxy-3-methylbut-2-enyl pyrophosphate, reference compound]",EC50,human Vγ9/Vδ2^+ T cells,181 nM
same,EC50,Vγ9/Vδ2 T cells,0.06 to 0.5 nM
"C/C(=C\CC(F)(F)P(=O)(N[C@@H](C)C(=O)OC(C)(C)C)N[C@@H](C)C(=O)OC(C)(C)C)CO [ProPAgen 9c, Di-tert-butyl 2,2'-((((E)-1,1-difluoro-5-hydroxy-4-methylpent-3-en-1-yl)phosphoryl)bis(azanediyl))(2S,2'S)-dipropionate]",EC50,human Vγ9/Vδ2^+ T cells,1500 nM
